# Assay results: US20100285959A1, “HERBICIDAL MIXTURES” (priority 2006, published 2010)
# How the values were obtained:
# winter barley (HORVW) = assay: Test 22 growth chamber, postemergence; format: in vivo, Hordeum vulgare; details: 25 DAA
# Procedure: (§1) A test was conducted to evaluate the effects on winter barley (HORVW, Hordeum vulgare L.), winter wheat (TRZAW, Triticum aestivum L.), and several weed species of mixtures of Compound 2 with the commercial herbicides (2,4-dichlorophenoxy)acetic acid (2,4-D) and (4-chloro-2-methylphenoxy)acetic acid (MCPA), auxin mimics. […] Plants were treated postemergence at the 2-4 leaf growth stage, except KCHSC, SASKR and STEME which were in the 4-8 leaf growth stage. Each treatment was replicated one time. […] Plants were watered as needed. […] Results are from single replicates.
# kochia (KCHSC) = assay: Test 22 growth chamber, postemergence; format: in vivo, Kochia scoparia; details: 25 DAA
# Procedure: as §1
# galium (GALAP) = assay: Test 23 growth chamber, postemergence; format: in vivo, Galium aparine; details: 21 DAA
# Procedure: as §1, with “stage,” for “stage, except KCHSC, SASKR”, “each” for “STEME which were in the 4-8 leaf growth stage. Each”, “three times.” for “one time.”, “means of the three” for “from single”
# redroot pigweed (AMARE) = assay: Test 2 field trial, preemergence; format: in vivo, Amaranthus retroflexus; design: scale not given here
# Excerpt: Corn seeds (hybrid ‘Pioneer 31G96’) were planted in mid spring season, 3.8 cm deep in a clay loam soil having 2% organic matter and a pH of 6.6. Plots were 6.1 m long by 3.0 m wide with rows spaced 76 cm apart. Seeds were spaced 15 cm apart within the rows. The field was managed using conventional tillage practices. […] A few of the weed species could not be evaluated at every timing. […] Results are the means of the three replicates.
# flint corn (ZEAMI) = assay: Test 12 field trial, preemergence; format: in vivo, Zea mays L. ssp. indurata; details: Cpd 2 or Cpd 1 62 g a.i./ha, Diuron 2000 g a.i./ha
# Excerpt: (§2) In early-mid spring season, corn seeds (hybrid ‘Pioneer 3041’) were planted 5 cm deep and sugarcane nodes (variety RB-72.454) were planted 10 cm deep in separate plots in a clay soil having 2.6% organic matter and a pH of 5.6. Plots were 24 m long by 1.5 m wide with rows spaced 80 cm (corn) or 140 cm (sugarcane) apart. Corn seeds were spaced 15 cm apart and sugarcane nodes were spaced 10 cm apart within the rows. At the same time, weed seeds were broadcast over the surface of separate plots without a crop, one weed species per plot. The weed plots were rotary tilled to incorporate the weed seeds to a variety of depths. The field was managed using conventional tillage practices.
# [1] = test system: Florida beggarweed (DEDTO); assay: Test 12 field trial, preemergence; format: in vivo, Desmodium tortuosum; design: scale not given here; details: Cpd 2 or Cpd 1 62 g a.i./ha, Diuron 2000 g a.i./ha
# Excerpt: as §2
# prickly lettuce (LACSE) = assay: Test 9 field trial, emerged weeds before corn planting; format: in vivo, Lactuca serriola; details: g a.i./ha: Cpd 2 100, Glyphosate 1540, Paraquat 1150
# Procedure: (§3) Corn seeds (hybrid ‘Pioneer 34M91 RR’) were planted in mid spring season, about 3.8 cm deep in a silty clay loam soil having a pH of 6.7. Plots were 9.1 m long by 3.0 m. The field was managed using no-till practices. […] Compound 2 and paraquat treatments, alone and in combination, also included a surfactant. Glyphosate, alone and with Compound 2, included ammonium sulfate in the treatment mixture. […] The effects on the weeds in the treated plots and untreated control plots were recorded 7, 14, 23, 30 and 57 days after application. Most of the weed species could not be evaluated at every timing. Corn response was only evaluated 57 days after application. […] Results are the means of the three replicates.
# red deadnettle (LAMPU) = assay: as above; format: in vivo, Lamium purpureum; details: g a.i./ha: Cpd 2 100, Glyphosate 1540, Paraquat 1150
# Procedure: as §3
# [2] = test system: ivyleaf morningglory (IPOHE); assay: Test 14 field trial, preemergence, growth as percent of control; format: in vivo, Ipomoea hederacea; details: 28 DAA
# Excerpt: Corn seeds (hybrid ‘Pioneer 31G96 RR’) were planted in mid spring season, 3.8 cm deep in a clay loam soil having 2% organic matter and a pH of 6.6. Plots were 6.1 m long by 3.0 m wide with rows spaced 76 cm apart. Seeds were spaced 15 cm apart within the rows. The field was managed using conventional tillage practices. […] Yellow nutsedge was only evaluated 19 and 28 days after application, and ivyleaf morningglory could only be evaluated 28 days after application. […] Results are the means of the three replicates. This growth inhibition data was converted to results in the form of “plant growth as a percent of control plant growth” using the calculation “100 minus growth inhibition”. […] For “growth as a percent of control” data, Colby's Equation calculates the expected additive effect of herbicidal mixtures having two active ingredients as follows:
# Ga+b=GaGb/100 • wherein Ga+b is the growth as a percent of control of plants treated with the mixture expected from additive contribution of the individual components, • Ga is the observed growth as a percent of control of plants treated with the first active ingredient at the same use rate as in the mixture, and • Gb is the observed growth as a percent of control of plants treated with the second active ingredient at the same use rate as in the mixture. For mixtures having three active ingredients, Colby's Equation to calculate the expected additive effect of herbicidal mixtures is as follows:
# Ga+b+c=GaGbGc/10,000 • wherein Ga and Gb are as defined above and • Ga+b+c is the growth as a percent of control of plants treated with the mixture expected from additive contribution of the individual components, and • Gc is the observed growth as a percent of control of plants treated with the third active ingredient at the same use rate as in the mixture. When these two forms of Colby's Equation are used, if the observed effects on weeds are less than the expected values, the mixture is synergistic.
# [3] = 2,4-D or MCPA alone 250 g a.i./ha
# [4] = 28 DAA, g a.i./ha: Cpd 2 25, Atrazine 250
# [5] = 28 DAA, g a.i./ha: Cpd 2 50, Atrazine 500
# [6] = 28 DAA, g a.i./ha: Cpd 2 75, Atrazine 750
# [7] = 28 DAA, g a.i./ha: Cpd 2 100, Atrazine 1000
# [8] = 28 DAA, g a.i./ha: Cpd 2 150, Atrazine 1500
# [9] = 55 DAA, g a.i./ha: Cpd 2 25, Atrazine 250
# [10] = 55 DAA, g a.i./ha: Cpd 2 50, Atrazine 500
# [11] = 55 DAA, g a.i./ha: Cpd 2 75, Atrazine 750
# [12] = 55 DAA, g a.i./ha: Cpd 2 100, Atrazine 1000
# [13] = 55 DAA, g a.i./ha: Cpd 2 150, Atrazine 1500
Compound,AMARE Obs (redroot pigweed (AMARE); [4]),AMARE Obs (redroot pigweed (AMARE); [5]),AMARE Obs (redroot pigweed (AMARE); [6]),AMARE Obs (redroot pigweed (AMARE); [7]),AMARE Obs (redroot pigweed (AMARE); [8]),AMARE Obs (redroot pigweed (AMARE); [9]),AMARE Obs (redroot pigweed (AMARE); [10]),AMARE Obs (redroot pigweed (AMARE); [11]),AMARE Obs (redroot pigweed (AMARE); [12]),AMARE Obs (redroot pigweed (AMARE); [13]),ZEAMI Obs (flint corn (ZEAMI); 15 DAA) [%],ZEAMI Obs (flint corn (ZEAMI); 29 DAA) [%],ZEAMI Obs (flint corn (ZEAMI); 48 DAA) [%],ZEAMI Obs (flint corn (ZEAMI); 61 DAA) [%],DEDTO Obs ([1]; 15 DAA),DEDTO Obs ([1]; 29 DAA),DEDTO Obs ([1]; 48 DAA),DEDTO Obs ([1]; 61 DAA),LACSE Obs (prickly lettuce (LACSE); 7 DAA) [%],LACSE Obs (prickly lettuce (LACSE); 14 DAA) [%],also measured
"O=C(O)COc1ccc(Cl)cc1Cl [2,4-D, (2,4-dichlorophenoxy)acetic acid]",–,–,–,–,–,–,–,–,–,–,–,–,–,–,–,–,–,–,–,–,Postemergence HORVW Obs (winter barley (HORVW); [3]): 10; Postemergence KCHSC Obs (kochia (KCHSC); [3]): 60; Postemergence GALAP Obs (galium (GALAP); [3]): 33
"CCNc1nc(Cl)nc(NC(C)C)n1 [Atrazine, atrazine, reference compound]",72,97,90,100,100,95,99,100,100,100,–,–,–,–,–,–,–,–,–,–,–
"Nc1nc(C2CC2)nc(C(=O)O)c1Cl [Compound 1, 6-amino-5-chloro-2-cyclopropyl-4-pyrimidinecarboxylic acid]",–,–,–,–,–,–,–,–,–,–,0,10,20,15,95,75,60,60,–,–,–
"COC(=O)c1nc(C2CC2)nc(N)c1Cl [Compound 2, methyl 6-amino-5-chloro-2-cyclopropyl-4-pyrimidinecarboxylate]",30,90,98,93,82,100,100,100,100,100,15,10,0,15,100,70,80,60,58,63,LACSE Obs (prickly lettuce (LACSE); 23 DAA): 70%; LACSE Obs (prickly lettuce (LACSE); 30 DAA): 88%; LACSE Obs (prickly lettuce (LACSE); 57 DAA): 98%; LAMPU Obs (red deadnettle (LAMPU); 7 DAA): 45%; LAMPU Obs (red deadnettle (LAMPU); 14 DAA): 23%; LAMPU Obs (red deadnettle (LAMPU); 23 DAA): 58%; LAMPU Obs (red deadnettle (LAMPU); 30 DAA): 65%; Obs growth % of control ([2]; 75 g a.i./ha): 0%; Obs growth % of control ([2]; 100 g a.i./ha): 0%; Postemergence HORVW Obs (winter barley (HORVW); Cpd 2 alone 4 g a.i./ha): 30; Postemergence HORVW Obs (winter barley (HORVW); Cpd 2 alone 8 g a.i./ha): 35; Postemergence HORVW Obs (winter barley (HORVW); Cpd 2 alone 16 g a.i./ha): 40; Postemergence KCHSC Obs (kochia (KCHSC); Cpd 2 alone 4 g a.i./ha): 45; Postemergence KCHSC Obs (kochia (KCHSC); Cpd 2 alone 8 g a.i./ha): 50; Postemergence KCHSC Obs (kochia (KCHSC); Cpd 2 alone 16 g a.i./ha): 60; Postemergence GALAP Obs (galium (GALAP); Cpd 2 alone 4 g a.i./ha): 60; Postemergence GALAP Obs (galium (GALAP); Cpd 2 alone 8 g a.i./ha): 72; Postemergence GALAP Obs (galium (GALAP); Cpd 2 alone 16 g a.i./ha): 80
O=C(O)CNCP(=O)(O)O [Glyphosate],–,–,–,–,–,–,–,–,–,–,–,–,–,–,–,–,–,–,45,87,LACSE Obs (prickly lettuce (LACSE); 23 DAA): 99%; LACSE Obs (prickly lettuce (LACSE); 30 DAA): 100%; LACSE Obs (prickly lettuce (LACSE); 57 DAA): 100%; LAMPU Obs (red deadnettle (LAMPU); 7 DAA): 55%; LAMPU Obs (red deadnettle (LAMPU); 14 DAA): 60%; LAMPU Obs (red deadnettle (LAMPU); 23 DAA): 77%; LAMPU Obs (red deadnettle (LAMPU); 30 DAA): 79%; LAMPU Obs (red deadnettle (LAMPU); 57 DAA): 95%
"CCc1cccc(C)c1N(C(=O)CCl)[C@@H](C)COC [S-Metolachlor, S-metolachlor, reference compound]",–,–,–,–,–,–,–,–,–,–,–,–,–,–,–,–,–,–,–,–,Obs growth % of control ([2]; 1870 g a.i./ha): 0%
